The nature of data set [1]: Parallel artificial membrane permeability assay (PAMPA). In kind it is in vitro ADME. The protocol: Potential solubility data were obtained with a pSOL model 3 instrument (pION INC, Cambridge, Massachusetts, USA). Cell membrane permeability was determined on a PAMPA Explorer instrument (pION).
Subsequently, the permeability of cell membranes was measured by standard parallel artificial membrane permeability assay (PAMPA).
(In PAMPA a lipid-coated filter parts donor from acceptor wells.)

For data set [2], the system named is Nrf2-ARE in RAW264.7 cells. Description: ARE inductivity under LPS stimulation. In kind it is cell-based, mouse. The conditions noted are these: Mus musculus, RAW264.7, read-out: EC50 of ARE inductivity.
The next data set concerns RAW264.7 cells. Description: IL-1β, IL-6, TNF-α and NO assays in cell culture supernatant. The conditions noted are these: Mus musculus, RAW264.7, read-out: EC50 for reduction of extracellular NO concentration. In kind it is cell-based, mouse. The protocol: IL-1β (IL-1β (m) ELISA kit, EK0394, Boster), IL-18 (IL-18 (m) ELISA kit, EMC011, NeoBioscience), IL-6 (IL-6 (m) ELISA kit EK0411, Boster), TNF-α (TNF-α (m) ELISA kit, EK0527, Boster) and NO (nitrate/nitrite assay kit, S0023, Beyotime, China) were tested using commercially available kits according to the manufacturer's instructions.
Then, several inflammatory mediators closely related to ROS, including IL-1β, IL-6, TNF-α and NO, were further evaluated.

Data set [3] is described as follows: Drug release rate by HPLC (H2O2 activation of prodrug). In kind it is physicochemical. Particulars: in the presence of H2O2, 12 h, UPLC/HRMS. The protocol:
The target compound was dissolved in DMSO to give a 10 mM stock solution, which was then stored at −20° C. The final concentration was brought to 50 μM by adding the target compound (10 mM) to phosphate buffered saline (PBS) (10 mM, pH 7.4), and H2O2 was added. The solution was well vortexed, and then incubated at 37° C. Samples were taken at appropriate time intervals and analyzed by HPLC directly after injection, and the peak areas were recorded to calculate the percentage of the compound. The procedure was repeated three times. The following Agilent 1260 HPLC and DAD detectors were used: Agilent C18 column (4.6×150 mm, 3.5 μm); mobile phase: 70% methanol; flow rate: 0.5 mL/min. A standard curve of the compound was plotted against concentration.
After treatment with 10 mM H2O2, the prodrug pro2 was activated with prolonged incubation time and the active parent compound 2 was completely released within 3 h (HPLC-determined conversion >98%, (B) of FIG. 1 and (C) of FIG. 1).

A value given as a limit tells only on which side of the number the result lay.

Consider `COc1ccc(S(=O)(=O)Nc2ccc(N(CC(=O)O)S(=O)(=O)c3ccc(OC)cc3)c3ccccc23)cc1` [Compound 2, N-(4-((4-methoxyphenyl)sulfonamido)naphthalen-1-yl)-N-((4-methoxyphenyl)sulfonyl)glycine], for which the “Pe at pH 7.4” value in data set [1] is 0.80 10^−6 cm/s. Besides, the Papp in data set [1] (pH 7.4, read-out: Pe at pH 7.4) came to 0.8 ×10⁻⁶ cm/s. Also, the EC50 in data set [2] is greater than 4.52 µM; with RAW264.7 cells, greater than 120 nM.
On to `COc1ccc(S(=O)(=O)N(CC(=O)N2CCSC2=O)c2ccc(N(CC(=O)N3CCSC3=O)S(=O)(=O)c3ccc(OC)cc3)c3ccccc23)cc1` [pro1, N,N′-(naphthalene-1,4-diyl)bis(4-methoxy-N-(2-oxo-2-(2-oxothiazolidin-3-yl)ethyl)benzenesulfonamide)], for which the “production of the active parent compound 1” value in data set [3] is given as “no production of the active parent compound 1 could be observed”.

The values above are taken from patent US12383535B2, “Hydrogen peroxide-responsive KEAP1-NRF2 ppi inhibitor prodrug, and preparation method therefor” (CHINA PHARMACEUTICAL UNIVERSITY, priority 2019, dated 2025).
